14 compounds from ChEMBL document CHEMBL1201862, “PubChem BioAssay data set” (2004) can be followed below.

Some test systems named below: MOLT-4; NCI-H522; OVCAR-8; SK-MEL-2; HL-60; SNB-19; SW-620; UO-31; COLO 205; KM12; HOP-92; LOX IMVI; U-251; CCRF-CEM; SN12C; CAKI-1.
What all share (assay): DTP human tumour cell line panel, 48 h

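A five-concentration, 48-hour dose response in 96-well plates underlies each endpoint, interpolated linearly between surrounding concentrations. At the GI50, growth is halved.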 The source made the active and inactive calls. Rule as the data show it: active = GI50 up to about 1.1 µM and inactive = higher.

Broadly, the GI50 is the concentration at which growth is held to half of that of the control.

Consider `CCOC(=O)N1Cc2ccoc2C1`, for which the GI50 in the experiment on MOLT-4, in the experiment with NCI-H522, in the experiment with OVCAR-8, with SK-MEL-2, with HL-60 and with SNB-19 was > 100 µM (inactive) throughout. Also, the GI50 with SW-620, with UO-31, in the experiment on COLO 205, with KM12, in the experiment on HOP-92 and in the experiment with LOX IMVI was > 100 µM (inactive) each time. In addition, the GI50 with U-251, in the experiment with CCRF-CEM and in the experiment with SN12C was > 100 µM (inactive) in each case.
As for `O=C(CCC(=O)N/N=C/c1ccccc1O)N/N=C/c1ccccc1O`, the GI50 with MOLT-4 is > 100 µM (inactive); in the experiment on NCI-H522, 53.2 µM (inactive); in the experiment on OVCAR-8, 92 µM (inactive); in the experiment with SK-MEL-2 it was 17.5 µM (inactive); in the experiment with SNB-19 it was 56.6 µM (inactive); in the experiment with SW-620, > 100 µM (inactive). Further, the GI50 was > 100 µM (inactive) in the experiment with UO-31; > 100 µM (inactive) in the experiment on CAKI-1; > 100 µM (inactive) in the experiment with COLO 205; > 100 µM (inactive) in the experiment with KM12; 27.9 µM (inactive) in the experiment on HOP-92; 32.7 µM (inactive) with U-251. Moreover, the GI50 with SN12C is > 100 µM (inactive).
Take `Cc1cc(C(O)CCCc2ccccc2)cc(C)c1O` (stereo not given): the GI50 in the experiment on MOLT-4 was 19.4 µM (inactive); in the experiment on NCI-H522, 27.4 µM (inactive); in the experiment with OVCAR-8, 47.5 µM (inactive); in the experiment with SK-MEL-2, 33.8 µM (inactive); in the experiment with HL-60, 16.6 µM (inactive); in the experiment with SNB-19 it was 14.6 µM (inactive). The GI50 with SW-620 was 75.7 µM (inactive); with UO-31 it was 15.4 µM (inactive); with COLO 205, 67.6 µM (inactive); with KM12, 29.6 µM (inactive); with LOX IMVI, 34 µM (inactive); in the experiment with U-251, 45.7 µM (inactive). For the same compound, the GI50 in the experiment on CCRF-CEM is 27.7 µM (inactive); in the experiment on SN12C, 41.8 µM (inactive).
`COC1OC(COCc2ccc(Cl)cc2)C(OCc2ccc(Cl)cc2)C1N=[N+]=[N-]` (stereo not given): the GI50 is 42.2 µM (inactive) with MOLT-4; 85.1 µM (inactive) with NCI-H522; > 100 µM (inactive) in the experiment with OVCAR-8; > 100 µM (inactive) with SK-MEL-2; > 100 µM (inactive) in the experiment on SNB-19; > 100 µM (inactive) in the experiment with SW-620. For the same compound, the GI50 with UO-31 was > 100 µM (inactive); in the experiment with CAKI-1, > 100 µM (inactive); with COLO 205 it was > 100 µM (inactive); in the experiment on KM12, > 100 µM (inactive); with HOP-92 it was 97.1 µM (inactive); in the experiment with U-251, > 100 µM (inactive). Besides, in the experiment with SN12C, the GI50 was > 100 µM (inactive).
Take `Oc1cc(O)c2c(-c3c(O)c(-c4ccc(O)c(O)c4)[o+]c4cc(O)cc(O)c34)c(O)c(-c3ccc(O)c(O)c3)[o+]c2c1`: the GI50 in the experiment on MOLT-4 is 30.5 µM (inactive); in the experiment with OVCAR-8, 36.6 µM (inactive); in the experiment on HL-60 it was > 10 µM (inactive); with SNB-19, 36 µM (inactive); with SW-620, 48.4 µM (inactive); in the experiment with UO-31, 40.4 µM (inactive). Also, the GI50 is 36.9 µM (inactive) in the experiment with CAKI-1; 42.5 µM (inactive) with COLO 205; 35.1 µM (inactive) in the experiment on KM12; 36.7 µM (inactive) in the experiment on HOP-92; 32.4 µM (inactive) with LOX IMVI; 30.9 µM (inactive) in the experiment on U-251. In addition, the GI50 was > 10 µM (inactive) with CCRF-CEM and 39.9 µM (inactive) with SN12C.
As for `COc1ccccc1C(O)(c1ccccc1)C(O)(c1ccccc1)c1ccccc1OC` (stereo not given), the GI50 with MOLT-4 is 48.1 µM (inactive); in the experiment with NCI-H522 it was > 100 µM (inactive); with OVCAR-8, > 100 µM (inactive); in the experiment with SK-MEL-2 it was > 100 µM (inactive); in the experiment with HL-60, 9.82 µM (inactive); in the experiment on SNB-19, > 100 µM (inactive). Further, the GI50 is > 100 µM (inactive) with SW-620; > 100 µM (inactive) in the experiment with UO-31; > 100 µM (inactive) in the experiment on COLO 205; > 100 µM (inactive) in the experiment with KM12; 20.3 µM (inactive) with HOP-92; > 100 µM (inactive) in the experiment with LOX IMVI. Moreover, the GI50 in the experiment with U-251, with CCRF-CEM and in the experiment with SN12C was > 100 µM (inactive) throughout.
On to `COc1cc([C@@H]2c3cc4c(cc3[C@@H](OC(=O)c3cccc(N)c3)C3COC(=O)[C@@H]32)OCO4)cc(OC)c1O` (stereo not given in full), for which the GI50 in the experiment with MOLT-4 was 1.91 µM (inactive); in the experiment on OVCAR-8 it was 8.05 µM (inactive); in the experiment with SK-MEL-2, 14.9 µM (inactive); in the experiment on HL-60 it was 2.7 µM (inactive); in the experiment with SNB-19 it was 34.8 µM (inactive); in the experiment with SW-620, 3.33 µM (inactive). The GI50 with UO-31 is 5.26 µM (inactive); with CAKI-1 it was 1.84 µM (inactive); in the experiment on COLO 205, 11.3 µM (inactive); in the experiment with KM12, 17.8 µM (inactive); in the experiment on LOX IMVI, 4.47 µM (inactive); in the experiment on U-251 it was 5.85 µM (inactive). Besides, the GI50 in the experiment with CCRF-CEM was 2.18 µM (inactive); in the experiment on SN12C it was 3.42 µM (inactive).
For `O=C(COc1ccccc1Cl)N1N=C(c2ccccc2)CC1(O)c1ccccc1` (stereo not given), the GI50 with MOLT-4 was 7.43 µM (inactive); in the experiment with NCI-H522, 41.9 µM (inactive); in the experiment with OVCAR-8, 16.6 µM (inactive); in the experiment on SK-MEL-2 it was 18.9 µM (inactive); with HL-60, 9.42 µM (inactive); in the experiment with SNB-19 it was 16.4 µM (inactive). Also, the GI50 was 26.5 µM (inactive) in the experiment on SW-620; 10.1 µM (inactive) with UO-31; 29 µM (inactive) in the experiment on CAKI-1; 18 µM (inactive) in the experiment on COLO 205; 21.2 µM (inactive) with KM12; 22.3 µM (inactive) in the experiment on HOP-92. For the same compound, the values for the GI50 in the experiment on LOX IMVI, in the experiment with U-251 and in the experiment on SN12C were 16.7 µM (inactive), 11.7 µM (inactive) and 12.9 µM (inactive), respectively.
As for `Nc1ccc(C2=N/C(=C\c3cccc(N)c3)C(=O)O2)cc1`, the GI50 in the experiment on MOLT-4 was > 100 µM (inactive); with NCI-H522, > 100 µM (inactive); in the experiment with OVCAR-8 it was > 100 µM (inactive); with SK-MEL-2, > 100 µM (inactive); in the experiment on HL-60, 57.5 µM (inactive); in the experiment on SNB-19, > 100 µM (inactive). In addition, the GI50 in the experiment with SW-620, in the experiment with UO-31, in the experiment with CAKI-1, with COLO 205, with KM12 and in the experiment with HOP-92 was > 100 µM (inactive) in each case. Also, the GI50 in the experiment with U-251 is > 100 µM (inactive); with CCRF-CEM, 67.3 µM (inactive); in the experiment with SN12C, > 100 µM (inactive).
For the compound `Cc1ccc(/N=N/c2c(C)nn(-c3ccccc3)c2C)c(Br)c1`, the GI50 was 64 µM (inactive) with MOLT-4; > 100 µM (inactive) in the experiment with OVCAR-8; > 100 µM (inactive) in the experiment on SK-MEL-2; 6.84 µM (inactive) with HL-60; > 100 µM (inactive) in the experiment with SNB-19; 70.8 µM (inactive) in the experiment on SW-620. The GI50 is > 100 µM (inactive) with CAKI-1; > 100 µM (inactive) in the experiment with COLO 205; 95.5 µM (inactive) with KM12; > 100 µM (inactive) with HOP-92; 53 µM (inactive) with LOX IMVI; 60.8 µM (inactive) with U-251. Also, the results for the GI50 with CCRF-CEM and in the experiment on SN12C were 27 µM (inactive) and > 100 µM (inactive), respectively.
Consider `CCOC(=O)C1(Cc2ccc3ccccc3c2)CCCCCN1` (stereo not given), for which the GI50 in the experiment with MOLT-4 is 4.91 µM (inactive); in the experiment with OVCAR-8 it was 39.6 µM (inactive); in the experiment on HL-60, 18.8 µM (inactive); in the experiment with SNB-19 it was 43.7 µM (inactive); in the experiment with SW-620, 24.5 µM (inactive); in the experiment on UO-31 it was 20.3 µM (inactive). For the same compound, the GI50 in the experiment with CAKI-1 was 9.23 µM (inactive); in the experiment with COLO 205, 18.7 µM (inactive); in the experiment with HOP-92 it was 13.9 µM (inactive); in the experiment on LOX IMVI it was 20.1 µM (inactive); in the experiment on U-251 it was 47 µM (inactive); in the experiment on SN12C it was 29.4 µM (inactive).
Consider `CC1=C(C)C(=O)c2c(cc3ccccn23)C1=O`, for which the GI50 was 24.2 µM (inactive) in the experiment with MOLT-4; 22.8 µM (inactive) in the experiment on OVCAR-8; 17.4 µM (inactive) in the experiment on HL-60; 15.3 µM (inactive) in the experiment on SNB-19; 19.2 µM (inactive) with SW-620; 24.3 µM (inactive) with UO-31. The GI50 in the experiment on COLO 205 was 20.3 µM (inactive); with KM12, 16.6 µM (inactive); in the experiment with LOX IMVI, 5.14 µM (inactive); in the experiment with U-251, 14.1 µM (inactive); in the experiment with CCRF-CEM, 27 µM (inactive); with SN12C it was 13.7 µM (inactive).
For `CCCCCCCCCCCCCCCCc1c(O)nc(NC#N)nc1C(=O)OC`, the GI50 with MOLT-4, in the experiment with NCI-H522, with OVCAR-8, with SK-MEL-2, in the experiment on HL-60 and in the experiment with SNB-19 was > 25 µM (inactive) each time. Besides, the GI50 in the experiment on SW-620, with UO-31, in the experiment on COLO 205, in the experiment on KM12, in the experiment on HOP-92 and in the experiment on LOX IMVI was > 25 µM (inactive) throughout. Moreover, the GI50 in the experiment on U-251, in the experiment with CCRF-CEM and in the experiment on SN12C was > 25 µM (inactive) each time.
Take `CN(C)CCNC(=O)c1cccc2cc3c(Cl)cccc3nc12`: the GI50 is 0.22 µM (active) in the experiment on MOLT-4; 2.86 µM (inactive) in the experiment on NCI-H522; 1.1 µM (active) in the experiment with OVCAR-8; 1.75 µM (inactive) in the experiment on SK-MEL-2; 1.71 µM (inactive) in the experiment with SNB-19; 0.641 µM (active) with SW-620. Moreover, the GI50 is 2.55 µM (inactive) in the experiment on UO-31; 3.63 µM (inactive) in the experiment with CAKI-1; 1.01 µM (active) in the experiment with COLO 205; 1.31 µM (inactive) in the experiment with KM12; 2.07 µM (inactive) in the experiment on HOP-92; 0.583 µM (active) in the experiment on LOX IMVI. Further, the GI50 in the experiment with U-251 was 1.24 µM (inactive); in the experiment on SN12C it was 1.07 µM (active).
